Data taken from patent EP0873137B1, “COMPOSITIONS INCLUDING CALCIUM INFLUX BLOCKERS FOR INHIBITING CELL GROWTH” (The Wellesley Hospital Foundation, priority 1996, dated 1997).

Legend:
[1] = tested on: SK-BR3 cells; assay: Cell death (Trypan blue exclusion) in SK-BR3 breast cancer cells; format: cell-based, human; conditions: with or without 10ng/ml EGF; 18 hours; Figure 9A
Protocol: (§1) Cells. Bone marrow derived mast cells (BMMC) were generated as described previously (Berger et al., 1994). They were cultured in OPTI-MEM (Gibco, Burlington, ON) supplemented with 10% heat-inactivated FBS and 2% WEHI-3 supernatant as a source of IL-3. 32D-kit cells (gift from Dr. Mark Minden, Ontario Cancer Institute) are an IL-3-dependent myelomonocytic cell line expressing c-kit (Hu et al., 1995). 32D-kit cells were grown in RPMI (Gibco) supplemented with 10% heat-inactivated FBS, 2% WEHI-3 supematant, and 1 mg/ml G418 (Gibco). The p815 cell line is a murine mastocytoma cell line. P815 cells were grown in RPMI supplemented with 10% heat-inactivated FBS. Bcl-2 gp+e NIH 3T3 packaging cells were grown in Dulbecco's modified Eagle's medium (DMEM - Gibco) and supplemented with 10% FBS and 2 µg/ml puromycin (Sigma, St. Louis, Mo). All cell cultures also contained 55µM β-mercaptoethanol and antibiotics (both Sigma). SK-BR3, MDA-MB231 and MCF-7 cells were obtained from ATCC. SK-BR3 and MDA-MB231 cells were cultured in RPMI medium supplemented with 10% heat inactivated fetal bovine serum. MCF-7 cells were cultured in DMEM medium supplemented with 10% heat inactivated fetal bovine serum and 10 µg/ml human insulin (Sigma).

[2] = tested on: MDA-MB-231 cells; assay: Cell death in autocrine stimulated MDA-MB-231 breast cancer cells; format: cell-based, human; conditions: 20µM econazole; Figure 9B
Protocol: Bar 1: control; Bar 2: 20µM econazole; Bar 3: 20µM econazole and 10µM YVAD-CHO (ICE inhibitor); Bar 4: 20µM econazole and 100 µM YVAD-CHO; Bar 5: 20µM econazole and 0.1 nM ionomycin (calcium ionophore); Bar 6: 20µM econazole and 10 nM ionomycin; Bar 7: 20µM econazole and 1 µM ionomycin; Bar 8: 20µM econazole and 10 µM oleic acid (PLC activation inhibitor); and Bar 9: 20µM econazole and 100 µM oleic acid.
as §1
The MDA-MB-231 cell line is a highly anaplastic carcinoma of the breast. it too is tumorigenic in nude mice but expresses only low levels of erbB2. However it is FGF^R positive and is stimulated in an autocrine fashion by bFGF (el Yazidi et al., 1995). Experiments were carried out to determine the susceptibility of MDA-MB-231 cells to a Ca^2+ influx blocker and the influence of oleic acid, ionomycin, and YVAD-CHO on induction of cell death by the blocker. The results are summarized together in Figure 9B.

[3] = tested on: BMMC; assay: Analysis of DNA content (propidium iodide, flow cytometry) in BMMC; format: cell-based; conditions: 24 hours
Protocol: Analysis of DNA content. 1.25 X 10^6 cells were incubated for 18 or 24 hours as described above. Cells were spun down and resuspended in Vindelov's reagent: 3.4mM Tris - pH 8, 75 µM Propidium Iodide (from Sigma), 0.1% NP-40, 700 u/l RNAse (Sigma) and 10 mM NaCl. Cells were then analysed by flow cytometry.

[4] = tested on: NS1/Ag4 myeloma cells; conditions: at 1µg/ml; cited from earlier work
[5] = tested on: 32D-kit-Bcl-2 cells; assay: Cell death assay (Trypan blue exclusion) in Bcl-2 over-expressing 32D-kit cells; format: cell-based; conditions: SLF plus 2.5, 5 or 10µM econazole; 18 hours; Figure 7B
Protocol: Figures 6A and 6B show the effect of ionomycin on apoptosis induced by SLF and Ca^2+ influx blacker. In Figure 6A, 32D-kit cells were incubated for 18 hours with 5µM econazole and the indicated amounts of ionomycin in the presence of either SLF (circles) or IL-3 (squares). In Figure 6B, 32D-kit-Bcl-2 cells were incubated for 18 hours with 5µM econazole and the indicated amounts of ionomycin in the presence of either SLF (circles) or IL-3 (squares). The proportion of dead cells was determined by Trypan Blue exclusion.
In additional cultures, IL-3 alone or no factor was added and cell viability was similarly tested. The effect on cell viability of adding 25 or 250 µM YVAD-CHO was also evaluated in separate cultures in which no additional factors were added.
Generation of Bcl-2 over-expressing 32D-kit cells. gp + e bcl-2 retroviral producer cells were a gift from Dr. Y. Ben-David (Toronto) and contain an LXSN-based retroviral vector expressing genes for both puromycin resistance and murine bcl-2. For infection, a confluent layer of gp + e packaging cells were co-cultured with 32D-kit cells for 24 hours. Non-adherent 32D-kit cells were then removed, cultured for 48 hours and then selected for bcl-2 over-expressing cells in the presence of 2µg/ml puromycin.
(§2) Cell death assays. 2.5 X 10^4 BMMCs, 32D-kit or P815 cells were placed in 96-well flat bottom plates in a volume of 0.1 ml RPMI containing 0.5% FBS. Cells were supplemented with either SLF, Substance P or IL3 plus Ca^2+ channel blocker. In the case of adding IgE, cells were incubated with 10 µg/ml SPE-7 for 45 minutes at 4°C followed by 3 washes with RPMI, 0.5% FBS before plating in 96 well plates and adding 100 ng/ml DNP-HSA. The proportion of dead cells was determined after 18 or 24 hours in culture by counting cells that could or could not exclude Trypan blue.

[6] = tested on: MCF-7 cells; assay: Cell death (Trypan blue exclusion) in MCF-7 cells; format: cell-based, human; conditions: with versus without 10ng/ml EGF; 18 hours; Figure 10
Protocol: 2.5 X 10^4 MCF-7 cells were incubated in the wells of a 96-well plate in 0.1ml DMEM plus 0.5% FBS with (circles) or without (squares) 10ng/ml EGF and with the concentrations of econazole indicated for 18 hours. The proportion of dead cells was evaluated by Trypan Blue exclusion after 18 hours in culture.
as §1, with “MCF-7 cells were cultured in DMEM medium supplemented with 10% heat inactivated fetal bovine serum and 10 µg/ml human insulin (Sigma).” left out

[7] = tested on: Bone marrow derived mast cells (BMMC); assay: Cell death assay (Trypan blue exclusion) in BMMC; format: cell-based; conditions: for cell death: 24 hours
Protocol: Cytotoxicity assays were performed as described in Materials and Methods. In Figures 1A to 1C, BMMCs were incubated with either SLF (500ng/ml in all cases) (circles) or IL-3 (25% WEHI-3 conditioned medium in all cases) (squares) with the indicated amounts of ketotifen (Figure 1A), econazole (Figure 1B) or Ni^2+ (Figure 1C). In Figure 1D, BMMCs were incubated with IL-3, and the indicated amounts of SLF. Plotted circles also included 2.5mM Ni^2+ and plotted squares included no Ni^2+. In Figure 1E, BMMCs were coated with IgE anti-DNP monoclonal SPE-7, then incubated with IL-3 plus the indicated amounts of DNP-HSA (Ag), with 5µM econazole (circles) or without econazole (squares). In Figure 1F, BMMCs were incubated with IL-3 plus the indicated amounts of Substance P, with 5µM econazole (circles) or without econazole (squares). In all cases, the proportion of dead cells was determined after 24 hours in culture by counting cells that could or could not exclude Trypan blue. Error bars represent the standard error determined from triplicate measurements.
as §1, §2

In the case of Clc1ccc(COC(Cn2ccnc2)c2ccc(Cl)cc2Cl)cc1 (centres unmarked) [econazole], the cell death [1] is reported as “equivalent levels of death”, the apoptosis [2] is reported as “undergo apoptosis” and the “Sub G1 Content (%) 8µM econazole” value ([3]; 8µM econazole plus IL-3 (25% WEHI conditioned media)) is reported as 20.4%. For the same compound, the “Sub G1 Content (%) 8µM econazole” value ([3]; 8µM econazole plus SLF (500ng/m.)) was 66.8%, the “cell viability and cell numbers” value [4] was “reduce cell viability and cell numbers” and the “protection by Bcl-2 overexpression from induction of apoptosis” value [5] was “fails to protect”. The “sensitivity to cell death” value [6] was “more sensitive”, the cell death ([7]; co-incubated with SLF (500ng/ml), Figures 1A-C) was “converted to a death signal” and the cell viability ([7]; econazole alone, without antigenic stimulation) was “no effect on cell viability”. The cell death ([7]; stimulated with IgE plus antigen (DNP-HSA), with IL-3, 5µM econazole in Figure 1E) was “cell death is induced” and the cell death ([7]; stimulated with Substance P, IL-3, 5µM econazole) was “cell death is also induced”.
